# Source: ChEMBL document CHEMBL1201862, “PubChem BioAssay data set” (2004)
#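 Interpolation was linear, between the two tested concentrations surrounding the appropriate level; five concentrations were tested over 48 hours in 96-well plates. GI50: concentration for 50% inhibition of growth.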 The source made the active and inactive calls. Rule as the data show it: active = GI50 up to about 1.1 µM and inactive = higher.
# Tests used:
# Test in all cases: DTP human tumour cell line panel, 48 h
# U-251 = test system: U-251
# HCT-116 = test system: HCT-116
# SR = test system: SR
# K562 = test system: K562
# UACC-62 = test system: UACC-62
# SF-268 = test system: SF-268
# HOP-92 = test system: HOP-92
# HOP-62 = test system: HOP-62
# TK-10 = test system: TK-10
# IGROV-1 = test system: IGROV-1
# LOX IMVI = test system: LOX IMVI
# EKVX = test system: EKVX
# NCI-H460 = test system: NCI-H460
# MOLT-4 = test system: MOLT-4
# SK-MEL-5 = test system: SK-MEL-5
# SNB-75 = test system: SNB-75
# SW-620 = test system: SW-620
# M14 = test system: M14
# SF-539 = test system: SF-539
# Malme-3M = test system: Malme-3M
Structure (SMILES),GI50 (U-251),GI50 (HCT-116),GI50 (SR),GI50 (K562),GI50 (UACC-62),GI50 (SF-268),GI50 (HOP-92),GI50 (HOP-62),GI50 (TK-10),GI50 (IGROV-1),GI50 (LOX IMVI),GI50 (EKVX),GI50 (NCI-H460),GI50 (MOLT-4),GI50 (SK-MEL-5),GI50 (SNB-75),GI50 (SW-620),GI50 (M14),GI50 (SF-539),GI50 (Malme-3M)
O=C1CC(=O)N(c2ccccc2)N1/C(=C/c1ccccc1)c1ccccc1,14.3 µM (inactive),16 µM (inactive),12.3 µM (inactive),1.54 µM (inactive),16.3 µM (inactive),16.2 µM (inactive),13.2 µM (inactive),18.5 µM (inactive),21.3 µM (inactive),15.8 µM (inactive),1.6 µM (inactive),37.6 µM (inactive),19.8 µM (inactive),1.58 µM (inactive),14.5 µM (inactive),22 µM (inactive),17.3 µM (inactive),19 µM (inactive),,
NC(=O)NN=C(CS)CS,21.6 µM (inactive),38.5 µM (inactive),,51.1 µM (inactive),25.3 µM (inactive),34.8 µM (inactive),21.9 µM (inactive),0.492 µM (active),,39.1 µM (inactive),15.7 µM (inactive),18.8 µM (inactive),23.7 µM (inactive),23.7 µM (inactive),17 µM (inactive),33 µM (inactive),28.4 µM (inactive),,21.8 µM (inactive),19.7 µM (inactive)
O1C2C1C1OC1C1OC1C1OC21 (stereo unspecified),> 100 µM (inactive),> 100 µM (inactive),> 100 µM (inactive),> 100 µM (inactive),> 100 µM (inactive),> 100 µM (inactive),> 100 µM (inactive),> 100 µM (inactive),> 100 µM (inactive),,> 100 µM (inactive),> 100 µM (inactive),,> 100 µM (inactive),> 100 µM (inactive),11.6 µM (inactive),,> 100 µM (inactive),,> 100 µM (inactive)
CCOC(=O)NC(=O)c1cn(CCNCCO)c(=O)[nH]c1=O,> 100 µM (inactive),> 100 µM (inactive),> 100 µM (inactive),> 100 µM (inactive),> 100 µM (inactive),> 100 µM (inactive),> 100 µM (inactive),> 100 µM (inactive),,> 100 µM (inactive),> 100 µM (inactive),> 100 µM (inactive),> 100 µM (inactive),> 100 µM (inactive),> 100 µM (inactive),3.36 µM (inactive),> 100 µM (inactive),> 100 µM (inactive),> 100 µM (inactive),> 100 µM (inactive)
Nc1ncnc2c1sc1nc3ccccc3n12,53.1 µM (inactive),,,> 100 µM (inactive),31 µM (inactive),19.4 µM (inactive),> 100 µM (inactive),> 70.1 µM (inactive),> 100 µM (inactive),13.4 µM (inactive),4.13 µM (inactive),35.1 µM (inactive),53.1 µM (inactive),11.8 µM (inactive),52 µM (inactive),,> 100 µM (inactive),> 84.1 µM (inactive),20.4 µM (inactive),> 71.3 µM (inactive)
CC(=O)Nc1ccc(C(=O)NN2C(=O)C(Cl)C2/C=C/c2ccccc2)cc1 (stereo unspecified),> 100 µM (inactive),> 100 µM (inactive),> 100 µM (inactive),> 100 µM (inactive),> 100 µM (inactive),> 100 µM (inactive),> 100 µM (inactive),> 100 µM (inactive),> 100 µM (inactive),> 100 µM (inactive),,,> 100 µM (inactive),> 100 µM (inactive),> 100 µM (inactive),> 100 µM (inactive),> 100 µM (inactive),,> 100 µM (inactive),> 100 µM (inactive)
Cn1c(=O)[nH]c2c(c1=O)C(=O)CN2,> 100 µM (inactive),> 100 µM (inactive),> 100 µM (inactive),> 100 µM (inactive),,> 100 µM (inactive),< 0.01 µM (active),,> 100 µM (inactive),> 100 µM (inactive),> 100 µM (inactive),> 100 µM (inactive),> 100 µM (inactive),> 100 µM (inactive),> 100 µM (inactive),> 100 µM (inactive),> 100 µM (inactive),> 100 µM (inactive),> 100 µM (inactive),> 100 µM (inactive)
CCSc1nc(N)c2c(-c3ccccc3)c3c(nc2n1)CCC3,> 100 µM (inactive),> 100 µM (inactive),> 100 µM (inactive),> 100 µM (inactive),> 100 µM (inactive),> 100 µM (inactive),,> 100 µM (inactive),> 100 µM (inactive),> 100 µM (inactive),> 100 µM (inactive),> 100 µM (inactive),> 100 µM (inactive),> 100 µM (inactive),> 100 µM (inactive),> 100 µM (inactive),> 100 µM (inactive),> 100 µM (inactive),6.53 µM (inactive),> 100 µM (inactive)
